Reference: US8697641B2, “4-amino-4-oxobutanoyl peptide cyclic analogues, inhibitors of viral replication” (Achillion Pharmaceuticals, Inc., priority 2008, dated 2014)

These molecules were tested on Hepatitis C replicon (assay: HCV replicon assay (NPT ELISA readout) in Huh-7 replicon-containing cells). Conditions: Hepatitis C virus, 72 h; HCV replicon in Huh-7 cells, three days incubation.
Type: cell-based, Hepatitis C virus
Description: Compounds claimed herein are tested for the ability to inhibit viral replication of the Hepatitis C replicon in cultured cells in which the HCV replicon construct has been incorporated. The HCV replicon system was described by Bartenschlager, et. al (Science, 285, pp. 110-113 (1999)). The replicon system is predictive of in vivo anti-HCV activity; compounds that are active in humans uniformly evidence activity in the replicon assay.
In this assay HCV replicon containing cells are treated with different concentrations of the test compound to ascertain the ability of the test compound to suppress replication of the HCV replicon. As a positive control, HCV replicon-containing cells are treated with different concentrations of interferon alpha, a known inhibitor of HCV replication. The replicon assay system includes Neomycin Phosphotransferase (NPT) as a component of the replicon itself in order to detect the transcription of replicon gene products in the host cell. Cells in which the HCV replicon is actively replicating have high levels of NPT; the level of NPT is proportional to HCV replication. […] The NPT level of each sample is measured using a captured ELISA.
A protocol for testing compounds for the ability to inhibit viral replication of the Hepatitis C replicon cultured cells in which the replicon construct has been incorporated, follows.
The HCV replicon contains, 5′-3′, the HCV-IRES, the neomycin phosphotransferase (neo) gene, the IRES of encephalomyocarditis virus, which directs translation of HCV sequences NS3 to NS5B, and the 3′-NTR. The sequence of the HCV replicon has been deposited in GenBank (Accession no. AJ242652).
The replicon is transfected into Huh-7 cells using standard methods such as electroporation.
The equipment and materials include, but are not limited to, Huh-7 HCV replicon-containing cells, maintenance media (DMEM (Dulbecco's modified Eagle media) supplemented with 10% FBS, L-glutamine, non-essential amino acids, penicillin (100 units/ml), streptomycin (100 micrograms/ml), and 500 micrograms/ml of Geneticin (G418), screening media (DMEM supplemented with 10% FBS, L-glutamine, non-essential amino acids, penicillin (100 units/ml) and streptomycin (100 micrograms/ml)), 96 well tissue culture plates (flat bottom), 96 well plates (U bottom for drug dilution), Interferon alpha for positive control, fixation reagent (such as methanol:acetone), primary antibody (rabbit anti-NPTII), secondary antibody: Eu-N1 l, and enhancement solution.
The cells are then seeded onto 96-well plates at a density of 6000-7500 cells/100 microliters/well (6-7.5×10^5 cells/10 ml/plate). The plates are then incubated at 37° C. in a 5% CO2 incubator.
HCV replicon-containing cells are rinsed with once PBS once; 2 mls of trypsin are then added. Cells are incubated at 37° C. in a 5% CO2 incubator for 3-5 minutes. 10 mls of complete medium is added to stop the reaction. Cells are blown gently, put into a 15 ml tube, and spun at 1200 rpm for four minutes. The trypsin/medium solution is removed and 5 mls of medium (500 ml DMEM (high glucose)) from BRL catalog #12430-054; 50 mls 10% FBS, 5% Geneticin G418 (50 mg/ml, BRL catalog #10131-035), 5 ml MEM non-essential amino acids (100×BRL #11140-050) and 5 ml pen-strep (BRL #15140-148) is added. The cells and media are mixed carefully
Cells are plated with screening medium (500 ml DMEM (BRL #21063-029), 50 ml FBS (BRL #10082-147) and 5 ml MEM non-essential amino acid (BRL #11140-050) at 6000-7500 fcells/100 μl/well of 96 well plate (6-7.5×10^5 cells/10 ml/plate). Plates are placed into 37° C. 5% CO2 incubator overnight.
The following morning, drugs (test compounds or interferon alpha) are diluted in 96 well U bottom plates with media or DMSO/media, depending on the final concentration chosen for screening. Generally for 6 concentrations of each test compounds ranging from 10 micromolar to 0.03 micromolar are applied. […]

SMILES | EC50
COc1ccc2c(O[C@@H]3C[C@H]4C(=O)N[C@]5(C(=O)NS(=O)(=O)C6CC6)C[C@H]5/C=C\CCCCC[C@H](CC(=O)N5CCOC(C)C5)C(=O)N4C3)cc(-c3ccccc3)nc2c1 (stereo partly drawn) [Compound 75, (2R,6R,13aS, 14aR,16aS,Z)-N-(cyclopropylsulfonyl)-2-(7-methoxy-2-phenylquinolin-4-yloxy)-6-(2-(2-methylmorpholino)-2-oxoethyl)-5,16-dioxo-1,2,3,5,6,7,8,9,10,11, 13a,14,14a,15,16,16a-hexadecahydrocyclopropa [e]pyrrolo[1,2-a][1,4] diazacyclopentadecine-14a-carboxamide] | < 1000 nM
COc1ccc2c(O[C@@H]3C[C@H]4C(=O)N[C@]5(C(=O)NS(=O)(=O)C6CC6)C[C@H]5/C=C\CCCCC[C@H](CC(=O)NC5CCCC5)C(=O)N4C3)cc(-c3ccccc3)nc2c1 [Compound 73, (2R,6R,13aS,14aR, 16aS,Z)-6-(2-(cyclopentylamino)-2-oxoethyl)-N-(cyclopropylsulfonyl)-2-(7-methoxy-2-phenylquinolin-4-yloxy)-5,16-dioxo-1,2,3,5,6,7,8,9,10,11, 13a,14,14a,15,16,16a-hexadecahydrocyclopropa [e]pyrrolo[1,2-a][1,4] diazacyclopentadecine-14a-carboxamide] | < 1000 nM
O=C1N[C@]2(C(=O)NS(=O)(=O)C3CC3)C[C@H]2/C=C\CCCCC[C@H](CC(=O)N2CCC(C(F)(F)F)CC2)C(=O)N2C[C@H](Oc3cc(-c4ccccn4)nc4c5c(ccc34)CCC5)C[C@@H]12 [Compound 125, (2R,6R,13aS,16aS,Z)-N-(cyclopropylsulfonyl)-5,16-dioxo-6-(2-oxo-2-(4-(trifluoromethyl)piperidin-1-yl)ethyl)-2-(2-(pyridin-2-yl)-8,9-dihydro-7H-cyclopenta[h]quinolin-4-yloxy)-1,2,3,5,6,7,8,9,10,11, 13a,14,14a,15,16,16a-hexadecahydrocyclopropa [e]pyrrolo[1,2-a][1,4] diazacyclopentadecine-14a-carboxamide] | < 1000 nM
CCOC(=O)C12CC1/C=C\CCCCC[C@@H](CC(=O)N1CCCCC1)C(=O)N1C[C@H](Oc3cc(-c4ccccc4)nc4cc(OC)ccc34)C[C@H]1C(=O)N2 (stereo partly drawn) [Compound 42, (2R,6S,16aS,Z)-ethyl 2-(7-methoxy-2-phenylquinolin-4-yloxy)-5,16-dioxo-6-(2-oxo-2-(piperidin-1-yl)ethyl)-1,2,3,5,6,7,8,9,10,11, 13a,14,14a,15,16,16a-hexadecahydrocyclopropa [e]pyrrolo[1,2-a][1,4] diazacyclopentadecine-14a-carboxylate] | 1000 to 10000 nM
COc1ccc2c(O[C@@H]3C[C@H]4C(=O)N[C@]5(C(=O)NS(=O)(=O)C6CC6)C[C@H]5/C=C\CCCCC[C@H](CC(=O)N5CCC(F)(F)CC5)C(=O)N4C3)cc(-c3ccccn3)nc2c1Cl [Compound 93, (2R,6R,14aR,16aS,Z)-2-(8-chloro-7-methoxy-2-(pyridin-2-yl)quinolin-4-yloxy)-N-(cyclopropylsulfonyl)-6-(2-(4,4-difluoropiperidin-1-yl)-2-oxoethyl)-5,16-dioxo-1,2,3,5,6,7,8,9,10,11, 13a,14,14a,15,16,16a-hexadecahydrocyclopropa [e]pyrrolo[1,2-a][1,4] diazacyclopentadecine-14a-carboxamide] | < 1000 nM
O=C(N[C@@H]1C[C@H]2C(=O)N[C@]3(C(=O)NS(=O)(=O)C4CC4)C[C@H]3/C=C\CCCCC[C@H](CC(=O)N3CCCCC3)C(=O)N2C1)c1cc(-c2ccccc2)nc2ccccc12 [Compound 81, (2R,6R,14aR,16aS,Z)-N-(cyclopropylsulfonyl)-5,16-dioxo-6-(2-oxo-2-(piperidin-1-yl)ethyl)-2-(2-phenylquinoline-4-carboxamido)-1,2,3,5,6,7,8,9,10,11, 13a,14,14a,15,16,16a-hexadecahydrocyclopropa [e]pyrrolo[1,2-a][1,4] diazacyclopentadecine-14a-carboxamide] | < 1000 nM
